# Measured values published in ChEMBL document CHEMBL3352618, “Discovery of novel pyrimidine and malonamide derivatives as TGR5 agonists” (Bioorg Med Chem Lett, 2014).
# Tests used:
# Type in all cases: ADME, organism-based
# [1] = AUC (0 to 7 hrs) in male ICR mouse at 5 mg/kg, iv; parameters: time < 7 hr, dose 5 mg/kg, route intravenous; conditions: plasma
# [2] = Half life in male ICR mouse at 5 mg/kg, iv; parameters: dose 5 mg/kg, route intravenous; conditions: in vivo
# Mus musculus [3] = assay: Volume of distribution at steady state in male ICR mouse at 5 mg/kg, iv; parameters: dose 5 mg/kg, route intravenous; conditions: in vivo
# Mus musculus [4] = assay: Clearance in male ICR mouse at 5 mg/kg, iv; parameters: dose 5 mg/kg, route intravenous; conditions: in vivo
# Mus musculus [5] = assay: Mean residence time (last) in male ICR mouse at 5 mg/kg, iv; parameters: dose 5 mg/kg, route intravenous; conditions: in vivo
# [6] = AUC (0 to 7 hrs) in male ICR mouse at 10 mg/kg, po; parameters: time < 7 hr, dose 10 mg/kg, route oral; conditions: plasma
# [7] = Cmax in male ICR mouse at 10 mg/kg, po; parameters: dose 10 mg/kg, route oral; conditions: in vivo
# [8] = Tmax in male ICR mouse at 10 mg/kg, po; parameters: dose 10 mg/kg, route oral; conditions: in vivo
# [9] = Half life in male ICR mouse at 10 mg/kg, po; parameters: dose 10 mg/kg, route oral; conditions: in vivo
# Mus musculus [10] = assay: Volume of distribution at steady state in male ICR mouse at 10 mg/kg, po; parameters: dose 10 mg/kg, route oral; conditions: in vivo
# [11] = Clearance in male ICR mouse at 10 mg/kg, po; parameters: dose 10 mg/kg, route oral; conditions: in vivo
# [12] = Mean residence time (last) in male ICR mouse at 10 mg/kg, po; parameters: dose 10 mg/kg, route oral; conditions: in vivo
# [13] = Oral bioavailability in male ICR mouse at 10 mg/kg; conditions: in vivo
structure (smiles),measurement,setting,value
CN1CCN(C(=O)c2cnc(O)nc2Oc2cc(Cl)ccc2Cl)c2ccccc21,AUC(0-t) at 7 h,[1],1430 ng·h/mL
same,half-life,[2],1.45 h
same,Vdss,Mus musculus [3],7.31 L/kg
same,CL,Mus musculus [4],58.2 mL/min/kg
same,MRT,Mus musculus [5],0.2 h
same,AUC(0-t) at 7 h,[6],397 ng·h/mL
same,Cmax,[7],236 ng/mL
same,Tmax,[8],1 h
same,half-life,[9],2.83 h
same,Vdss,Mus musculus [10],90.5 L/kg
same,CL/F,[11],369 mL/min/kg
same,MRT last,[12],1.97 h
same,bioavailability,[13],13.9%
